Source: the supplement of paper PMC8671470

Experiments:
Conditions in all cases: 72 h
LAMA-84 [1] = assay: cell viability (% survival relative to DMSO control, bortezomib = 0%); higher = less cytotoxic
Method in brief: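 Percent survival is reported as the mean of duplicate wells. Cells from 10 AML and 5 CML lines were plated in 384-well plates containing compounds at 1, 10, 100, 1000 or 10000 nM and kept for 72 h at 37 °C in 5% CO2. Readout used CellTiter-Glo luminescence, scaled so that vehicle equals 100% and a 10 µM positive control equals 0%.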

KG-1 = tested on: KG-1
Method in brief: (§1)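 In 384-well plates holding acoustically pre-printed compounds at five tenfold doses from 1 to 10,000 nM, in duplicate, fifteen myeloid leukaemia cell lines were grown in RPMI 1640 for 72 h at 37 °C with 5% CO2. Luminescent ATP viability was scaled between vehicle and a positive control at 10 µM. The IC50 was then taken from log-logistic dose–response fits with four parameters.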

KU-812 = tested on: KU-812
Method in brief: as §1

Mono-Mac-6 = tested on: Mono-Mac-6
Method in brief: as §1

KCL-22 = tested on: KCL-22
Method in brief: as §1

THP-1 = tested on: THP-1
Method in brief: as §1

HEL = tested on: HEL
Method in brief: as §1

MV4-11 = tested on: MV4-11
Method in brief: as §1

BV-173 = tested on: BV-173
Method in brief: as §1

MOLM-13 = tested on: MOLM-13
Method in brief: as §1

K-562 = tested on: K-562
Method in brief: as §1

NOMO-1 = tested on: NOMO-1
Method in brief: as §1

HL-60 = tested on: HL-60
Method in brief: as §1

ML-2 = tested on: ML-2
Method in brief: as §1

LAMA-84 [2] = tested on: LAMA-84
Method in brief: as §1

SHI-1 = tested on: SHI-1
Method in brief: as §1

SMILES	cell viability (LAMA-84 [1]; 1 nM) [%]	cell viability (LAMA-84 [1]; 10 nM) [%]	cell viability (LAMA-84 [1]; 100 nM) [%]	cell viability (LAMA-84 [1]; 1000 nM) [%]	cell viability (LAMA-84 [1]; 10000 nM) [%]	IC50 (cell viability) (KG-1) [µM]	IC50 (cell viability) (KU-812) [µM]	IC50 (cell viability) (Mono-Mac-6) [µM]	IC50 (cell viability) (KCL-22) [µM]	IC50 (cell viability) (THP-1) [µM]	IC50 (cell viability) (HEL) [µM]	IC50 (cell viability) (MV4-11) [µM]	IC50 (cell viability) (BV-173) [µM]	IC50 (cell viability) (MOLM-13) [µM]	IC50 (cell viability) (K-562) [µM]	IC50 (cell viability) (NOMO-1) [µM]	IC50 (cell viability) (HL-60) [µM]	IC50 (cell viability) (ML-2) [µM]	IC50 (cell viability) (LAMA-84 [2]) [µM]	IC50 (cell viability) (SHI-1) [µM]
C#Cc1cnc(O)nc1O [Eniluracil]	100	102	107	109	104	> 10	> 10	> 10	> 10	> 10	> 10	> 10	> 10	> 10	> 10	> 10	> 10	> 10	> 10	> 10
CC(/C=C1\SC(=S)N(CC(=O)O)C1=O)=C\c1ccccc1 [Epalrestat]	104	99.8	82.6	104	99.8	> 10	> 10	> 10	> 10	> 10	> 10	> 10	> 10	> 10	> 10	> 10	> 10	> 10	> 10	> 10
CCOC(=O)[C@@]1(CCCCCCOc2ccc(Cl)cc2)CO1 [Etomoxir]	94.9	110	106	58.5	62.7	> 10	> 10	> 10	> 10	> 10	> 10	> 10	6.76	> 10	> 10	> 10	> 10	> 10	5.83	> 10
Cc1c(-c2ccccc2)oc2c(C(=O)OCCN3CCCCC3)cccc2c1=O.Cl [Flavoxate]	98	102	97.6	101	101	> 10	> 10	> 10	> 10	> 10	> 10	> 10	> 10	> 10	> 10	> 10	> 10	> 10	> 10	> 10
O=C(O)CCc1ccc(NCc2cccc(Oc3ccccc3)c2)cc1 [GW9508]	96.8	98.6	108	93.2	106	> 10	> 10	> 10	> 10	> 10	> 10	> 10	> 10	> 10	> 10	> 10	> 10	> 10	> 10	> 10
c1ccc2c(c1)OCC(=C1NCCN1)O2 [Idazoxan]	101	98.4	89	96.5	93	> 10	> 10	> 10	> 10	> 10	> 10	> 10	> 10	> 10	> 10	> 10	> 10	> 10	> 10	> 10
C[C@]12O[C@H](C[C@]1(O)CO)n1c3ccccc3c3c4c(c5c6ccccc6n2c5c31)CNC4=O [Lestaurtinib]	99.6	94.4	34.2	25	0.148	0.0227	0.0467	0.0143	0.149	0.848	0.0504	0.00331	0.0201	0.00461	0.182	0.188	0.0912	0.139	0.0512	0.0633
O=C(O)c1nn(Cc2ccc(Cl)cc2Cl)c2ccccc12 [Lonidamine]	99.1	94.6	108	99.9	102	> 10	> 10	> 10	> 10	> 10	> 10	> 10	> 10	> 10	> 10	> 10	> 10	> 10	> 10	> 10
C1CCc2nnc(C34CC5CC(CC(C5)C3)C4)n2CC1 [MERCK-544]	102	94.5	91.9	92.9	101	> 10	> 10	> 10	> 10	> 10	> 10	> 10	> 10	> 10	> 10	> 10	> 10	> 10	> 10	> 10
CC(Cc1ccc(O)c(O)c1)C(C)Cc1ccc(O)c(O)c1 (stereo not given) [Masoprocol]	95.8	95.7	106	95.5	94	6.63	> 10	2.08	> 10	> 10	> 10	3.8	3.66	> 10	> 10	> 10	3.15	3.42	> 10	> 10
CC(C(=O)O)C(=O)O [Methylmalonate]	89.2	101	106	98.2	90.3	> 10	> 10	> 10	> 10	> 10	> 10	> 10	> 10	> 10	> 10	> 10	> 10	> 10	> 10	> 10
COc1c(C)c2c(c(O)c1C/C=C(\C)CCC(=O)O)C(=O)OC2 [Mycophenolic acid]	106	93.2	108	46.8	16.9	2.34	0.954	1.83	0.289	> 10	1.01	0.507	0.679	0.183	0.561	2.55	0.652	0.333	0.771	2.52
C1CCC(C(CC2CCCCN2)C2CCCCC2)CC1.O=C(O)/C=C\C(=O)O (stereo not given) [Perhexiline]	97.7	89.1	98	97.7	12.3	3.23	3.99	3.55	3.63	2.55	3.23	2.73	3.34	2.66	3.35	6.5	2.85	3.43	4.23	3.28
